Laboratory results as given in patent publication US20260226068A1, “IMIDAZOTRIAZINE IL-17A MODULATORS AND USES THEREOF” (DICE ALPHA, INC., priority 2023, published 2026).
pIC50: −log10 of the molar value.

Tests used:
IL-17A/F = target: T1, IL-17A/F (Homo sapiens, UniProt Q16552+Q96PD4); test: IL-17A/F HEK-Blue cell assay (SEAP reporter); type: cell-based; settings: HEK-Blue IL-17A reporter cells, IL17A/F 5 ng/mL, 20 hours, SEAP read at A630; read-out: HEK-Blue IL17AF (IC50 for IL-17A/F inhibition)
T1 construct: purchased R&D Systems
T1 sequence (Q16552 24-155): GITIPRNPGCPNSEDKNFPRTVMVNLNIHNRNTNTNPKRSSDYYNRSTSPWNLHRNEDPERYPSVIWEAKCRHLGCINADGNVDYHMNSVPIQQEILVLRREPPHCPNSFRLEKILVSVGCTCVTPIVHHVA
T1 sequence (Q96PD4 31-163): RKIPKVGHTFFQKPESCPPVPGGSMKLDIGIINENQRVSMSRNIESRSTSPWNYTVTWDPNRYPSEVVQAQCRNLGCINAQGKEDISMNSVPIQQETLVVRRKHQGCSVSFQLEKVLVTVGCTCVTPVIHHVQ

IL-17A/A = target: T2, IL-17A/A (Homo sapiens, UniProt Q16552); test: IL-17A/A HEK-Blue cell assay (SEAP reporter); type: cell-based; settings: HEK-Blue IL-17A reporter cells, IL17A/A 5 ng/mL, 20 hours, SEAP read at A630; read-out: HEK-Blue IL17AA (IC50 for IL-17A/A inhibition)
T2 construct: purchased Genscript Z03228
T2 sequence (Q16552 24-155): T1 sequence (Q16552 24-155)

Compound | pIC50 (IL-17A/F) | pIC50 (IL-17A/A)
Cc1nonc1C(=O)N[C@H](c1cn2nc(C[C@H]3C[C@@H](C(F)(F)F)CNC3=O)c(C3CCOCC3)nc2n1)[C@H]1C[C@H]2C[C@H]2C1 [Compound 316, N—((S)-((1R,3r,5S)-bicyclo[3.1.0]hexan-3-yl)(2-(((3R,5R)-2-oxo-5-(trifluoromethyl)piperidin-3-yl)methyl)-3-(tetrahydro-2H-pyran-4-yl)imidazo[1,2-b][1,2,4]triazin-6-yl)methyl)-4-methyl-1,2,5-oxadiazole-3-carboxamide] | < 6.00 | 6.00 to 7.00
CCc1nonc1C(=O)N[C@H](c1cn2nc(C[C@H]3C[C@@H](C(F)(F)F)CNC3=O)c(C3CCOCC3)nc2n1)[C@H]1C[C@H]2C[C@H]2C1 [Compound 317, N—((S)-((1R,3r,5S)-bicyclo[3.1.0]hexan-3-yl)(2-(((3R,5R)-2-oxo-5-(trifluoromethyl)piperidin-3-yl)methyl)-3-(tetrahydro-2H-pyran-4-yl)imidazo[1,2-b][1,2,4]triazin-6-yl)methyl)-4-ethyl-1,2,5-oxadiazole-3-carboxamide] | < 6.00 | 6.00 to 7.00
Cc1nonc1C(=O)N[C@H](c1cn2nc(C[C@H]3C[C@@H](C(F)(F)F)CNC3=O)c(C3CCOCC3)nc2n1)[C@H]1C[C@H](C2CC2)C1 [Compound 318, N—((S)-((1r,3S)-3-cyclopropylcyclobutyl)(2-(((3R,5R)-2-oxo-5-(trifluoromethyl)piperidin-3-yl)methyl)-3-(tetrahydro-2H-pyran-4-yl)imidazo[1,2-b][1,2,4]triazin-6-yl)methyl)-4-methyl-1,2,5-oxadiazole-3-carboxamide] | < 6.00 | > 7.00
CCc1nonc1C(=O)N[C@H](c1cn2nc(C[C@H]3C[C@@H](C(F)(F)F)CNC3=O)c(C3CCOCC3)nc2n1)[C@H]1C[C@H](C2CC2)C1 [Compound 319, N—((S)-((1r,3S)-3-cyclopropylcyclobutyl)(2-(((3R,5R)-2-oxo-5-(trifluoromethyl)piperidin-3-yl)methyl)-3-(tetrahydro-2H-pyran-4-yl)imidazo[1,2-b][1,2,4]triazin-6-yl)methyl)-4-ethyl-1,2,5-oxadiazole-3-carboxamide] | < 6.00 | > 7.00
Cn1nccc1C(=O)N[C@H](c1cn2nc(C[C@H]3C[C@@H](C(F)(F)F)CNC3=O)c(C3CCOCC3)nc2n1)C(C1CC1)C1CC1 [Compound 320, N—((S)-2,2-dicyclopropyl-1-(2-(((3R,5R)-2-oxo-5-(trifluoromethyl)piperidin-3-yl)methyl)-3-(tetrahydro-2H-pyran-4-yl)imidazo[1,2-b][1,2,4]triazin-6-yl)ethyl)-1-methyl-1H-pyrazole-5-carboxamide] | 6.00 to 7.00 | > 7.00
CCn1nccc1C(=O)N[C@H](c1cn2nc(C[C@H]3CC(F)(F)CNC3=O)c(C3CCOCC3)nc2n1)C(C1CC1)C1CC1 [Compound 323] | < 6.00 | > 7.00
CCn1nccc1C(=O)N[C@H](c1cn2nc(C[C@H]3C[C@@H](C(F)(F)F)CNC3=O)c(N3CCOCC3)nc2n1)C1CCCCC1 [Compound 326, N—((S)-cyclohexyl(3-morpholino-2-(((3R,5R)-2-oxo-5-(trifluoromethyl)piperidin-3-yl)methyl)imidazo[1,2-b][1,2,4]triazin-6-yl)methyl)-1-ethyl-1H-pyrazole-5-carboxamide] | 6.00 to 7.00 | > 7.00
CCc1nonc1C(=O)N[C@H](c1cn2nc(C[C@H]3C[C@@H](C(F)(F)F)CNC3=O)c(N3CCOCC3)nc2n1)C1CCCCC1 [Compound 327, N—((S)-cyclohexyl(3-morpholino-2-(((3R,5R)-2-oxo-5-(trifluoromethyl)piperidin-3-yl)methyl)imidazo[1,2-b][1,2,4]triazin-6-yl)methyl)-4-ethyl-1,2,5-oxadiazole-3-carboxamide] | < 6.00 | > 7.00
CCn1nccc1C(=O)N[C@H](c1cn2nc(C[C@@H]3CC(F)(F)CNC3=O)c(C3CCOCC3)nc2n1)C(C1CC1)C1CC1 [Compound 328] | 6.00 to 7.00 | > 7.00
CCn1nccc1C(=O)N[C@H](c1cn2nc(C[C@H]3C[C@@H](C(F)(F)F)CNC3=O)c(CNCC(F)(F)F)nc2n1)C1CCC(F)(F)CC1 [Compound 331, N—((S)-(4,4-difluorocyclohexyl)(2-(((3R,5R)-2-oxo-5-(trifluoromethyl)piperidin-3-yl)methyl)-3-(((2,2,2-trifluoroethyl)amino)methyl)imidazo[1,2-b][1,2,4]triazin-6-yl)methyl)-1-ethyl-1H-pyrazole-5-carboxamide] | 6.00 to 7.00 | > 7.00
CCn1nccc1C(=O)N[C@H](c1cn2nc(C[C@H]3C[C@@H](C(F)(F)F)CNC3=O)c(CN3CC(F)(F)C3)nc2n1)C1CCC(F)(F)CC1 [Compound 332, N—((S)-(3-((3,3-difluoroazetidin-1-yl)methyl)-2-(((3R,5R)-2-oxo-5-(trifluoromethyl)piperidin-3-yl)methyl)imidazo[1,2-b][1,2,4]triazin-6-yl)(4,4-difluorocyclohexyl)methyl)-1-ethyl-1H-pyrazole-5-carboxamide] | < 6.00 | > 7.00
CCn1nccc1C(=O)N[C@H](c1cn2nc(C[C@H]3C[C@@H](C(F)(F)F)CNC3=O)c(CN3CCC(F)(F)C3)nc2n1)C1CCC(F)(F)CC1 [Compound 333, N—((S)-(4,4-difluorocyclohexyl)(3-((3,3-difluoropyrrolidin-1-yl)methyl)-2-(((3R,5R)-2-oxo-5-(trifluoromethyl)piperidin-3-yl)methyl)imidazo[1,2-b][1,2,4]triazin-6-yl)methyl)-1-ethyl-1H-pyrazole-5-carboxamide] | < 6.00 | > 7.00
CCn1nccc1C(=O)N[C@H](c1cn2nc(C[C@H]3C[C@@H](C(F)(F)F)CNC3=O)c(Cn3ccnc3)nc2n1)C1CCC(F)(F)CC1 [Compound 334, N—((S)-(3-((1H-imidazol-1-yl)methyl)-2-(((3R,5R)-2-oxo-5-(trifluoromethyl)piperidin-3-yl)methyl)imidazo[1,2-b][1,2,4]triazin-6-yl)(4,4-difluorocyclohexyl)methyl)-1-ethyl-1H-pyrazole-5-carboxamide] | 6.00 to 7.00 | > 7.00
CCn1nccc1C(=O)N[C@H](c1cn2nc(C[C@H]3C[C@@H](C(F)(F)F)CNC3=O)c(CN(C)CC(F)(F)F)nc2n1)C1CCC(F)(F)CC1 [Compound 335, N—((S)-(4,4-difluorocyclohexyl)(3-((methyl(2,2,2-trifluoroethyl)amino)methyl)-2-(((3R,5R)-2-oxo-5-(trifluoromethyl)piperidin-3-yl)methyl)imidazo[1,2-b][1,2,4]triazin-6-yl)methyl)-1-ethyl-1H-pyrazole-5-carboxamide] | 6.00 to 7.00 | > 7.00
CCn1nccc1C(=O)N[C@H](c1cn2nc(C[C@H]3C[C@@H](C(F)(F)F)CNC3=O)c(CN3CC(C(F)(F)F)C3)nc2n1)C1CCC(F)(F)CC1 [Compound 336, N—((S)-(4,4-difluorocyclohexyl)(2-(((3R,5R)-2-oxo-5-(trifluoromethyl)piperidin-3-yl)methyl)-3-((3-(trifluoromethyl)azetidin-1-yl)methyl)imidazo[1,2-b][1,2,4]triazin-6-yl)methyl)-1-ethyl-1H-pyrazole-5-carboxamide] | 6.00 to 7.00 | > 7.00
